Data taken from ChEMBL document CHEMBL4002577, “Phenylthiazole antibiotics: A metabolism-guided approach to overcome short duration of action” (Eur J Med Chem, 2017).
In brackets after ≈: the same amount, converted by molar mass. Activity calls are given as the source filed them. The calls are words filed in the database; no cut-off is given here.

Columns and labels:
Staphylococcus aureus [1] = test: Antibacterial activity against methicillin-resistant Staphylococcus aureus 2658 RCMB after 18 to 20 hrs by broth microdilution method; type: functional
[2] = Intrinsic clearance in human liver microsomes after 10 to 60 mins in presence of NADPH by LC/MS/MS analysis; type: ADME, microsome; conditions: read-out: CLH
[3] = Half life in human liver microsomes after 10 to 60 mins in presence of NADPH by LC/MS/MS analysis; type: ADME, microsome
[4] = Half life in human liver microsomes after 10 to 60 mins in absence of NADPH by LC/MS/MS analysis; type: ADME, microsome
[5] = Drug metabolism in Sprague-Dawley rat serum assessed as CYP450-mediated oxidation at 50 mg/kg administered via oral gavage after 6 hrs by LC/MS/MS analysis; type: ADME, organism-based; conditions: in vivo
[6] = Drug metabolism in Sprague-Dawley rat serum assessed as […] at 50 mg/kg administered via oral gavage after 6 hrs by LC/MS/MS analysis; type: ADME, organism-based; conditions: in vivo
[7] = Drug metabolism in Sprague-Dawley rat urine assessed as CYP450-mediated oxidation at 50 mg/kg administered via oral gavage after 24 hrs by LC/MS/MS analysis; type: ADME, organism-based; conditions: in vivo
[8] = Drug metabolism in Sprague-Dawley rat urine assessed as […] at 50 mg/kg administered via oral gavage after 24 hrs by LC/MS/MS analysis; type: ADME, organism-based; conditions: in vivo
Staphylococcus aureus [9] = test: Antibacterial activity against methicillin-resistant Staphylococcus aureus USA300 infected in Balb/c mouse assessed as reduction in bacterial load in wound at 2% administered topically bid for 3 days starting 48 hrs post infection relative to control; type: functional
Staphylococcus aureus [10] = test: Antibacterial activity against mupirocin/rifampicin-resistant Staphylococcus aureus RN4220 NRS107 clinical isolate after 18 to 20 hrs by broth microdilution method; type: functional
Staphylococcus aureus [11] = test: Antibacterial activity against methicillin/ciprofloxacin/gentamicin/clindamycin-resistant Staphylococcus aureus USA200 NRS383 clinical isolate after 18 to 20 hrs by broth microdilution method; type: functional
Staphylococcus aureus [12] = test: Antibacterial activity against methicillin-resistant Staphylococcus aureus USA400 NRS123 clinical isolate after 18 to 20 hrs by broth microdilution method; type: functional
Staphylococcus aureus [13] = test: Antibacterial activity against methicillin/ciprofloxacin/clindamycin-resistant Staphylococcus aureus USA100 NRS382 clinical isolate after 18 to 20 hrs by broth microdilution method; type: functional
Staphylococcus aureus [14] = test: Antibacterial activity against methicillin/erythromycin/tetracycline-resistant Staphylococcus aureus USA300 NRS384 clinical isolate after 18 to 20 hrs by broth microdilution method; type: functional
Staphylococcus aureus [15] = test: Antibacterial activity against vancomycin-resistant Staphylococcus aureus VRSA4 clinical isolate after 18 to 20 hrs by broth microdilution method; type: functional
Staphylococcus aureus [16] = test: Antibacterial activity against vancomycin-resistant Staphylococcus aureus VRSA10 clinical isolate after 18 to 20 hrs by broth microdilution method; type: functional
Staphylococcus aureus [17] = test: Bactericidal activity against mupirocin/rifampicin-resistant Staphylococcus aureus RN4220 NRS107 clinical isolate after 24 hrs; type: functional; conditions: RN4220 NRS107, 24 h
Staphylococcus aureus [18] = test: Bactericidal activity against methicillin/ciprofloxacin/gentamicin/clindamycin-resistant Staphylococcus aureus USA200 NRS383 clinical isolate after 24 hrs; type: functional
Staphylococcus aureus [19] = test: Bactericidal activity against methicillin-resistant Staphylococcus aureus USA400 NRS123 clinical isolate after 24 hrs; type: functional
Staphylococcus aureus [20] = test: Bactericidal activity against methicillin/ciprofloxacin/clindamycin-resistant Staphylococcus aureus USA100 NRS382 clinical isolate after 24 hrs; type: functional
Staphylococcus aureus [21] = test: Bactericidal activity against methicillin/erythromycin/tetracycline-resistant Staphylococcus aureus USA300 NRS384 clinical isolate after 24 hrs; type: functional
Staphylococcus aureus [22] = test: Bactericidal activity against vancomycin-resistant Staphylococcus aureus VRSA4 clinical isolate after 24 hrs; type: functional; conditions: VRSA4, 24 h
Staphylococcus aureus [23] = test: Bactericidal activity against vancomycin-resistant Staphylococcus aureus VRSA10 clinical isolate after 24 hrs; type: functional; conditions: VRSA10, 24 h
Staphylococcus aureus [24] = test: Ratio of MBC to MIC for methicillin/ciprofloxacin/gentamicin/clindamycin-resistant Staphylococcus aureus USA200 NRS383 clinical isolate; type: functional
Staphylococcus aureus [25] = test: Ratio of MBC to MIC for methicillin/erythromycin/tetracycline-resistant Staphylococcus aureus USA300 NRS384 clinical isolate; type: functional
Staphylococcus aureus [26] = test: Ratio of MBC to MIC for methicillin-resistant Staphylococcus aureus USA400 NRS123 clinical isolate; type: functional
Staphylococcus aureus [27] = test: Bactericidal activity against methicillin-resistant Staphylococcus aureus USA400 NRS123 clinical isolate assessed as time required to reduce 3 log10CFU of bacterial load at 4 times MIC by time kill assay; type: functional
HaCaT [28] = test: Cytotoxicity against human HaCaT cells assessed as decrease in cell viability up to 32 ug/ml after 2 hrs by MTS assay; type: cell-based
HaCaT [29] = test: Cytotoxicity against human HaCaT cells assessed as decrease in cell viability at 64 ug/ml after 2 hrs by MTS assay; type: cell-based
J774 = test: Cytotoxicity against mouse J774 cells assessed as decrease in cell viability up to 16 ug/ml after 2 hrs by MTS assay; type: cell-based; conditions: j774, 2 h
Staphylococcus aureus [30] = test: Antibacterial activity against methicillin-resistant Staphylococcus aureus USA400 NRS123 clinical isolate infected in mouse J774 cells assessed as reduction of bacterial load at 16 ug/ml after 8 hrs; type: functional, cell-based
Staphylococcus aureus [31] = test: Antibacterial activity against methicillin-resistant Staphylococcus aureus USA400 NRS123 clinical isolate infected in mouse J774 cells assessed as reduction of bacterial load at 16 ug/ml after 12 hrs relative to control; type: functional; conditions: USA400 NRS123, J774, 12 h
Staphylococcus aureus [32] = test: Antibacterial activity against methicillin-resistant Staphylococcus aureus USA400 NRS123 clinical isolate infected in mouse J774 cells assessed as reduction of bacterial load at 16 ug/ml after 24 hrs relative to control; type: functional; conditions: USA400 NRS123, J774, 24 h
Staphylococcus aureus [33] = test: Potentiation of vancomycin-mediated antibacterial activity against vancomycin-resistant Staphylococcus aureus VRSA4 clinical isolate assessed as reduction in vancomycin MIC at 0.5 times MIC preincubated for 30 mins followed by vancomycin addition measured after 20 to 22 hrs relative to control; type: functional
Staphylococcus aureus [34] = test: Potentiation of vancomycin-mediated antibacterial activity against vancomycin-resistant Staphylococcus aureus VRSA10 clinical isolate assessed as reduction in vancomycin MIC at 0.5 times MIC preincubated for 30 mins followed by vancomycin addition measured after 20 to 22 hrs relative to control; type: functional
[35] = Intrinsic clearance in human liver microsomes after 10 to 60 mins in absence of NADPH by LC/MS/MS analysis; type: ADME, microsome; conditions: read-out: CLH
Staphylococcus aureus [36] = test: Potency index, ratio of vancomycin MIC to test compound MIC for methicillin-resistant Staphylococcus aureus 2658 RCMB; type: functional

## CCCCc1ccc(-c2nc(C)c(/C(C)=N/NC(=N)N)s2)cc1
Staphylococcus aureus [1]
  MIC: 3.75 µg/mL (≈ 11.4 µM)
[2]
  microsomal CLint: 80.3 µL/min/mg
[3]
  half-life: 0.48 h
[4]
  half-life: > 1 h
[5]
  Drug metabolism: Metabolite_Detected
[6]
  Drug metabolism: Metabolite_Detected
[7]
  Drug metabolism: Metabolite_Detected
[8]
  Drug metabolism: Metabolite_Detected
Staphylococcus aureus [9]
  Activity: 2.36 deltalog10CFU

## C/C(=N\NC(=N)N)c1sc(-c2ccc(OC3CCCCCC3)cc2)nc1C
Staphylococcus aureus [1]
  MIC: 0.98 µg/mL (≈ 2.54 µM)
Staphylococcus aureus [10]
  MIC: 4 µg/mL (≈ 10.4 µM)
Staphylococcus aureus [11]
  MIC: 2 µg/mL (≈ 5.19 µM)
Staphylococcus aureus [12]
  MIC: 4 µg/mL (≈ 10.4 µM)
Staphylococcus aureus [13]
  MIC: 2 µg/mL (≈ 5.19 µM)
Staphylococcus aureus [14]
  MIC: 4 µg/mL (≈ 10.4 µM)
Staphylococcus aureus [15]
  MIC: 4 µg/mL (≈ 10.4 µM)
Staphylococcus aureus [16]
  MIC: 4 µg/mL (≈ 10.4 µM)
Staphylococcus aureus [17]
  MBC: 8 µg/mL (≈ 20.8 µM)
Staphylococcus aureus [18]
  Activity: Dose-dependent effect
Staphylococcus aureus [18]; USA200 NRS383, 24 h
  MBC: 8 µg/mL (≈ 20.8 µM)
Staphylococcus aureus [19]
  Activity: Dose-dependent effect
Staphylococcus aureus [19]; USA400 NRS123, 24 h
  MBC: 16 µg/mL (≈ 41.5 µM)
Staphylococcus aureus [20]
  Activity: Dose-dependent effect
Staphylococcus aureus [20]; USA100 NRS382, 24 h
  MBC: 4 µg/mL (≈ 10.4 µM)
Staphylococcus aureus [21]
  Activity: Dose-dependent effect
Staphylococcus aureus [21]; USA300 NRS384, 24 h
  MBC: 16 µg/mL (≈ 41.5 µM)
Staphylococcus aureus [22]
  MBC: 4 µg/mL (≈ 10.4 µM)
Staphylococcus aureus [23]
  MBC: 4 µg/mL (≈ 10.4 µM)
Staphylococcus aureus [24]
  Ratio: >3
Staphylococcus aureus [25]
  Ratio: >3
Staphylococcus aureus [26]
  Ratio: >3
Staphylococcus aureus [27]
  Time: 48 h
HaCaT [28]
  Activity: Non-Toxic
HaCaT [29]
  Activity: Toxic
J774
  Activity: Non-Toxic
Staphylococcus aureus [30]
  Activity: inactive
Staphylococcus aureus [31]
  inhibition at 16 µg/mL: 48%
Staphylococcus aureus [32]
  inhibition at 16 µg/mL: 70%
Staphylococcus aureus [33]
  fold change (FC): 16
Staphylococcus aureus [34]
  fold change (FC): 256
[2]
  microsomal CLint: < 9.6 µL/min/mg
[3]
  half-life: > 4 h
[35]
  microsomal CLint: < 9.6 µL/min/mg
[4]
  half-life: > 4 h
Staphylococcus aureus [36]
  Ratio: 1
